Earlier results in patent US20220339103A1, “Lung-targeted corticosteroid treatment in viral respiratory disease, COVID-19 and ARDS (acute respiratory distress syndrome)” (Bodor Laboratories, Inc., priority 2021, published 2022).
Read-outs that look alike come from different tables or passages of the source.

Assays:
[1] = tested on: thymus; settings: for TD50, thymolysis potency: subcutaneous cotton pellet granuloma test
[2] = tested on: cotton pellet granuloma; settings: for ED50, anti-inflammatory activity in the cotton pellet granuloma test: subcutaneous cotton pellet granuloma test
[3] = biological target: T1, rat lung cytosol glucocorticoid receptors (Rattus norvegicus, UniProt P06536); settings: compared with dexamethasone
T1 construct: from tissue; host or cells: rat lung cytosol
T1 sequence (P06536 1-795): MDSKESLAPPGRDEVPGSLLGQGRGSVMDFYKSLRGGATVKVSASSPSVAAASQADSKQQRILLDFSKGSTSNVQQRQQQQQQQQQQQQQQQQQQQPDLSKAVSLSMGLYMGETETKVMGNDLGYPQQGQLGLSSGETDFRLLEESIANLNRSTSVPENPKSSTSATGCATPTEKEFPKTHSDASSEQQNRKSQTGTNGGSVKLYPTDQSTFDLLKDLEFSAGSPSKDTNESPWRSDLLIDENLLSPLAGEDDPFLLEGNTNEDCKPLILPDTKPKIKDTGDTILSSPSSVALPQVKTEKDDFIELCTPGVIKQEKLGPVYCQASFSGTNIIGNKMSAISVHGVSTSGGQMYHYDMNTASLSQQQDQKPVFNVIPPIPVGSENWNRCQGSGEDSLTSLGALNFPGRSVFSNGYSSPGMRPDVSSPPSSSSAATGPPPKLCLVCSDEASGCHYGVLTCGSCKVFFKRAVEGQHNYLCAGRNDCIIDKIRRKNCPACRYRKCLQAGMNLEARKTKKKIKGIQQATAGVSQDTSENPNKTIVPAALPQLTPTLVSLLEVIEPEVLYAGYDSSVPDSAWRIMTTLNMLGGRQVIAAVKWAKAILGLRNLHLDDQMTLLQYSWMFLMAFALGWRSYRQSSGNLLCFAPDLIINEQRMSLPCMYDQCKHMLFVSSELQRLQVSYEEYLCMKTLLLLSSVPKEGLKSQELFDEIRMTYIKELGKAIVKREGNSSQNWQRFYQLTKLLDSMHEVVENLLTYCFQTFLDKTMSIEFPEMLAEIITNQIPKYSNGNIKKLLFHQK

[4] = tested on: intraocular pressure; settings: long-term use, 28 days or longer; LE 0.2% or 0.5%, prednisolone acetate 1%
[5] = biological target: Paraoxonase 1 (Homo sapiens, UniProt P27169)
Chain of Paraoxonase 1 (P27169 whole entry): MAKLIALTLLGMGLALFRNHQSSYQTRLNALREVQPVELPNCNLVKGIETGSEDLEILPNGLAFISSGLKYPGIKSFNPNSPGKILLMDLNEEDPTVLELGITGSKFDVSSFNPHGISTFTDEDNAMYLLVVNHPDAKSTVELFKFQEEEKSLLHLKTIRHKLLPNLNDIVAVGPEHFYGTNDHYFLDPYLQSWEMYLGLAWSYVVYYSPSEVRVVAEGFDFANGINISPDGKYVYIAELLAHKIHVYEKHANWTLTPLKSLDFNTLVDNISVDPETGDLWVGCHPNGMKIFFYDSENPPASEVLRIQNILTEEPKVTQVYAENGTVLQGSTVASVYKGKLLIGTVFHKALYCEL

[6] = tested on: seasonal allergic rhinitis (SAR) to grass pollen; settings: nasal spray, 100-800 μg, 645 SAR patients, vs PLA, p<0.03
[7] = human vasoconstrictor studies
[8] = tested on: hypothalamic-pituitary axis; settings: at any Loteprednol Etabonate use
[9] = 0.2% ophthalmic suspension, 159 patients treated >1 yr
[10] = tested on: intraocular pressure; settings: corneal transplant patients developing very high IOP
[11] = betamethasone 17α-valerate = 1.00

SMILES	Rel.pot., relative timolysis effect ([1]; in vivo)	TD50, thymolysis potency [1]	Rel.pot., relative inflammatory effect compared to betamethasone [2, 11]	ED50, anti-inflammatory activity in the cotton pellet granuloma test [2] [μg/pellet]	corticosteroid receptor binding [3]	IOP elevation greater than or equal to 10 mmHg, share of subjects [4] [%]	hydrolyzing esterase [5]	change from baseline in two-week average reflective Total Nasal Symptom Score (TNSS) [6]	topical activity [7]	suppression of the hypothalamic-pituitary axis [8]	Rel.pot., relative inflammatory effect compared to betamethasone ([2]; in vivo)	adverse effects of long-term use [9]	IOP after replacing prednisolone acetate with LE [10]	Rel.pot., relative timolysis effect [1, 11]
CCCC(=O)O[C@]1(C(=O)CO)CC[C@H]2[C@@H]3CCC4=CC(=O)CC[C@]4(C)[C@H]3[C@@H](O)C[C@@]21C [Hydrocortisone 17α-butyrate (HB) (0.1%), Hydrocortisone 17α-butyrate]	0.57	369 μg/pellet	0.70	121.0	–	–	–	–	–	–	–	–	–	–
CCOC(=O)O[C@]1(C(=O)OCCl)CC[C@H]2[C@@H]3CCC4=CC(=O)C=C[C@]4(C)[C@H]3[C@@H](O)C[C@@]21C [Loteprednol Etabonate, chloromethyl 17α-ethoxycarbonyloxy-11β-hydroxyandrosta-1,4-dien-3-one-17β-carboxylate]	0.02	10,000 μg/pellet	–	178.0	significantly higher than that of dexamethasone	0.64	hydrolyzed by the HDL-connected Paraoxonase 1	significantly more efficacious than PLA	very good topical activity	no significant suppression	0.48	no reported adverse effects	all IOP-s were returned to normal	–
CCC(=O)O[C@]1(C(=O)CCl)[C@@H](C)C[C@H]2[C@@H]3CCC4=CC(=O)C=C[C@]4(C)[C@@]3(F)C(=O)C[C@@]21C [Clobetasone-17α-propi onate (KP) (0.1%), Clobetasone-17α-propi onate]	–	11 μg/pellet	29.70	2.9	–	–	–	–	–	–	–	–	–	19.30
CCCCC(=O)O[C@]1(C(=O)CO)[C@@H](C)C[C@H]2[C@@H]3CCC4=CC(=O)C=C[C@]4(C)[C@@]3(F)[C@@H](O)C[C@@]21C [Betamethasone 17α-valerate (BV) (0.12%), Betamethasone 17α-valerate]	–	212 μg/pellet	1.00	84.8	–	–	–	–	–	–	–	–	–	1.00
